Literature values, collected in patent US20230165822A1, “URINARY ALKALIZING MEDICINAL AND/OR PHARMACEUTICAL COMPOSITION FOR THE ORAL TREATMENT OF INTERSTITIAL CYSTITIS / BLADDER PAIN SYNDROME (IC/BPS) AND FORMULATION THEREOF” (priority 2020, published 2023).

Conditions: in vivo

share reaching the bladder: only a fraction
SMILES: CC(=O)/N=c1/sc(S(N)(=O)=O)nn1C [Methazolamide]
